Measurements published in patent publication US20210263122A1, “RATIOMETRIC PULSED CEST IMAGING” (BRACCO IMAGING S.P.A., priority 2015, published 2021).

Key:
[1] = Chemical exchange rate (kex) of amide protons from 1H-NMR linewidth; type: physicochemical
Description: High-resolution 1H-NMR spectra were recorded on a Bruker Avance 600 spectrometer (Bruker BioSpin Rheinstetten, Germany) operating at 14 T (corresponding to a proton Larmor frequency of 600.13 MHz) equipped with a Z-gradient 5 mm inverse probe. Sample temperature control was monitored within +/−0.1 K by means of the BTO2000 variable temperature unit. 1H NMR spectra to measure the linewidth of exchangeable protons were obtained by means of a pulse sequence using water suppression by excitation sculpting with gradients (T. L. Hwang, A. J. Shaka Water Suppression That Works. Excitation Sculpting Using Arbitrary Wave-Forms and Pulsed-Field Gradients, J. Magn. Reson. Ser. A, 1995, 112(3), 275-279). The carrier frequency was carefully set on resonance to the water signal. Simple “excite-detect” acquisitions (typical parameters: 16 ppm spectral window, 32 k complex data points, 3 s relaxation delay, and 64 averaged FIDs) were carried out to measure the linewidths of the exchangeable amide protons at 310 K. In vitro studies were performed by preparing 30 mM solutions of Iodixanol in aqueous phosphate buffer solution (10 mM), with the pH adjusted within the 5.5-7.4 range by addition of aliquots of HCl/NaOH. Capillaries containing the solutions were transferred into a 5 mm NMR tube filled with D2O for field-frequency lock.
Exchange rate values analogously assessed in the pH range of from 5.4 to 7.9 for some radiographic contrast agents according to the invention are provided in the following Table 3.

[2] = 7.05 T, 310 K, pH 7.4; cited from earlier work

Compound | Kex ([1]; pH 5.5, 310K) | Kex ([1]; pH 6.0, 310K) | Kex ([1]; pH 6.3, 310K) | Kex ([1]; pH 6.7, 310K) | Kex ([1]; pH 7.0, 310K) | Kex ([1]; pH 7.4, 310K) | Kex ([1]; pH 7.9, 310K) | Kex ([1]; physiological conditions, Example 1) | averaged Kex exchange rate of amide mobile protons [2]
CC(=O)N(CC(O)CN(C(C)=O)c1c(I)c(C(=O)NCC(O)CO)c(I)c(C(=O)NCC(O)CO)c1I)c1c(I)c(C(=O)NCC(O)CO)c(I)c(C(=O)NCC(O)CO)c1I (stereo not drawn) [Iodixanol] | 32 s⁻¹ | 51 s⁻¹ | 80 s⁻¹ | 179 s⁻¹ | 476 s⁻¹ | 1213 s⁻¹ | 1332 s⁻¹ | exceeds 200 Hz | 
CC(=O)N(CC(O)CO)c1c(I)c(C(=O)NCC(O)CO)c(I)c(C(=O)NCC(O)CO)c1I (stereo not drawn) [Iohexol] | 22 s⁻¹ | 69 s⁻¹ | 139 s⁻¹ | 372 s⁻¹ | 923 s⁻¹ | 1609 s⁻¹ | 4056 s⁻¹ |  | 
C[C@H](O)C(=O)Nc1c(I)c(C(=O)NC(CO)CO)c(I)c(C(=O)NC(CO)CO)c1I [Iopamidol] |  |  |  |  |  |  |  |  | about 2560 s^−1

Continued, in another order:

Kex ([1]; pH 5.5, 310K) | Kex ([1]; pH 6.0, 310K) | Kex ([1]; pH 6.3, 310K) | Kex ([1]; pH 6.7, 310K) | Kex ([1]; pH 7.0, 310K) | Kex ([1]; pH 7.4, 310K) | Kex ([1]; pH 7.9, 310K) | Kex ([1]; physiological conditions, Example 1) | Compound | averaged Kex exchange rate of amide mobile protons [2]
30 s⁻¹ | 88 s⁻¹ | 164 s⁻¹ | 430 s⁻¹ | 794 s⁻¹ | 1831 s⁻¹ | 4389 s⁻¹ |  | CN(C(=O)CO)c1c(I)c(C(=O)NCC(O)CO)c(I)c(C(=O)NCC(O)CO)c1I (stereo not drawn) [Iomeprol] | 
22 s⁻¹ | 66 s⁻¹ | 118 s⁻¹ | 292 s⁻¹ | 913 s⁻¹ | 1628 s⁻¹ | 3660 s⁻¹ |  | O=C(NCC(O)CO)c1c(I)c(C(=O)NCC(O)CO)c(I)c(N(CCO)C(=O)CO)c1I (stereo not drawn) [Ioversol] | 
